Structures can show the parent of a compound that is named as a salt.
What follows are compounds tested against NLRP3 (Homo sapiens (Human), UniProt Q96P20) (assay: THP-1 cells pyroptosis assay (LPS + nigericin, resazurin read-out)). Conditions: 1 μg/ml LPS, 5 μM nigericin.
Type: cell-based
Protocol: THP-1 cells (ATCC #TIB-202) were grown in RPMI containing L-glutamine (Gibco 15 #11835) supplemented with 1 mM sodium pyruvate (Sigma #S8636) and penicillin (100 units/ml)/streptomycin (0.1 mg/ml) (Sigma #P4333) in 10% Fetal Bovine Serum (FBS) (Sigma #F0804). The cells were routinely passaged and grown to confluency (˜10^6 cells/ml). On the day of the experiment, THP-1 cells were harvested and resuspended into RPMI medium (without FBS). The cells were then counted and viability (>90%) checked by Trypan blue (Sigma #T8154). Appropriate dilutions were made to give a concentration of 625,000 cells/ml. To this diluted cell solution was added LPS (Sigma #[4524) to give a 1 μg/ml Final Assay Concentration (FAC). 40μ of the final preparation was aliquoted into each well of a 96-well plate. The plate thus prepared was used for compound screening.
The following method step-by-step assay was followed for compound screening. • 1. Seed THP-1 cells (25,000 cells/well) containing 1.0 μg/ml LPS in 40μ of RPMI medium (without FBS) in 96-well, black walled, clear bottom cell culture plates coated with poly-D-lysine (VWR #734-0317) • 2. Add 5 μl compound (8 points half-log dilution, with […]) or vehicle (DMSO 0.1% FAC) to the appropriate wells • 3. Incubate for 3 hrs at 37° C. and 5% CO2 • 4. Add 5 μl nigericin (Sigma #N7143) (FAC 5 μM) to all wells • 5. Incubate for 1 hr at 37° C. and 5% CO2 • 6. At the end of the incubation period, spin plates at 300×g for 3 mins and remove supernatant • 7. Then add 50 μl of resazurin (Sigma #R7017) (FAC 100 μM resazurin in RPMI medium without FBS) and incubate plates for a further 1-2 hrs at 37° C. and 5% CO2 • 8. Plates were read in an Envision reader at Ex 560 nm and Em 590 nm • 9. IC50 data is fitted to a non-linear regression equation (log inhibitor vs response-variable slope 4-parameters)

NLRP3, sequence (Q96P20 whole entry): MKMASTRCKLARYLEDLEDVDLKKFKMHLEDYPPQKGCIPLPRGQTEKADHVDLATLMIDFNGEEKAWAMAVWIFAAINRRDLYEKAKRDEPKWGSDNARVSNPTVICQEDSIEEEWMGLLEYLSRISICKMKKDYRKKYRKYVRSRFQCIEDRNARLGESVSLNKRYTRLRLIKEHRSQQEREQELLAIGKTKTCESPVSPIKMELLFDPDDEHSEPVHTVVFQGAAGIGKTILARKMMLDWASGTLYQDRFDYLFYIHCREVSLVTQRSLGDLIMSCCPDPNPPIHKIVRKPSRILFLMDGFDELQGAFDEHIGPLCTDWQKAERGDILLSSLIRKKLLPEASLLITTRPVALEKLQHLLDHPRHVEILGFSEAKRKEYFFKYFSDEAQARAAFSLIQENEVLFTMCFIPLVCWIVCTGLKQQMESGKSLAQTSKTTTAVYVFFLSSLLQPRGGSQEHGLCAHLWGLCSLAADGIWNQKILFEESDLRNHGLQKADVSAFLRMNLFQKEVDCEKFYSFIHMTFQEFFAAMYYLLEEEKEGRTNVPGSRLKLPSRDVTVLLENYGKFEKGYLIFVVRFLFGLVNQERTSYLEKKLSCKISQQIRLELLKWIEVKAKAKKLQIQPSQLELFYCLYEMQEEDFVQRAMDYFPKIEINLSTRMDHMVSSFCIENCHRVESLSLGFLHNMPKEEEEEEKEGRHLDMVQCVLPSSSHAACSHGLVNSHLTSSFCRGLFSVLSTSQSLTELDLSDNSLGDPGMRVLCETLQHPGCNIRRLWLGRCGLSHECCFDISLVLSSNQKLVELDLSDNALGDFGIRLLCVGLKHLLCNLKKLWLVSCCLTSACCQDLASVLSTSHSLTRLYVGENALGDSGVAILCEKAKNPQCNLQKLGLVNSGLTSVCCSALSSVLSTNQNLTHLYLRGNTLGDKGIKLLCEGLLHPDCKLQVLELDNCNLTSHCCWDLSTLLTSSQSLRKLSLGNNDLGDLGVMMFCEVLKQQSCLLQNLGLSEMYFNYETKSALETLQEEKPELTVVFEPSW

Compound | IC50 [µM]
CCC(=O)N1CCC(S(=O)(=O)NC(=O)Nc2c3c(cc4c2CCC4)CCC3)CC1 [Example 10, N-((1,2,3,5,6,7-Hexahydro-s-indacen-4-yl)carbamoyl)-1-propionylpiperidine-4-sulfonamide, potassium salt] | 1 to 10
CC(C)C(=O)N1CCC(S(=O)(=O)NC(=O)Nc2c3c(cc4c2CCC4)CCC3)CC1 [Example 11, N-((1,2,3,5,6,7-Hexahydro-s-indacen-4-yl)carbamoyl)-1-isobutyrylpiperidine-4-sulfonamide, potassium salt] | 1 to 10
COCC(=O)N1CCC(S(=O)(=O)NC(=O)Nc2c3c(cc4c2CCC4)CCC3)CC1 [Example 12, N-((1,2,3,5,6,7-Hexahydro-s-indacen-4-yl)carbamoyl)-1-(2-methoxyacetyl)piperidine-4-sulfonamide, potassium salt] | 1 to 10
N#CCN1CCC(S(=O)(=O)NC(=O)Nc2c3c(cc4c2CCC4)CCC3)CC1 [Example 14, 1-(Cyanomethyl)-N-((1,2,3,5,6,7-hexahydro-s-indacen-4-yl)carbamoyl)piperidine-4-sulfonamide, potassium salt] | 1 to 10
O=C(Nc1c2c(cc3c1CCC3)CCC2)NS(=O)(=O)C1CCN(C2CCC2)CC1 [Example 15, 1-Cyclobutyl-N-((1,2,3,5,6,7-hexahydro-s-indacen-4-yl)carbamoyl)piperidine-4-sulfonamide, potassium salt] | 1 to 10
CCCN1CCC(S(=O)(=O)NC(=O)Nc2c3c(cc4c2CCC4)CCC3)CC1 [Example 19, N-((1,2,3,5,6,7-Hexahydro-s-indacen-4-yl)carbamoyl)-1-propyl piperidine-4-sulfonamide, potassium salt] | 1 to 10
O=C(Nc1c2c(cc3c1CCC3)CCC2)NS(=O)(=O)C1CCN(C2COC2)CC1 [Example 20, N-((1,2,3,5,6,7-Hexahydro-s-indacen-4-yl)carbamoyl)-1-(oxetan-3-yl)piperidine-4-sulfonamide, potassium salt] | 1 to 10
COC(=O)CN1CCC(S(=O)(=O)NC(=O)Nc2c3c(cc4c2CCC4)CCC3)CC1 [Example 21, Methyl 2-(4-(N-((1,2,3,5,6,7-Hexahydro-s-indacen-4-yl)carbamoyl)sulfamoyl)piperidin-1-yl)acetate, potassium salt] | 1 to 10
O=C(Nc1c2c(cc3c1CCC3)CCC2)NS(=O)(=O)C1CCN(CCF)CC1 [Example 22, 1-(2-Fluoroethyl)-N-((1,2,3,5,6,7-hexahydro-s-indacen-4-yl)carbamoyl)piperidine-4-sulfonamide, potassium salt] | 1 to 10
O=C(Nc1c2c(cc3c1CCC3)CCC2)NS(=O)(=O)C1CCN(C2CC2)CC1 [Example 23, 1-Cyclopropyl-N-((1,2,3,5,6,7-hexahydro-s-indacen-4-yl)carbamoyl)piperidine-4-sulfonamide, potassium salt] | 1 to 10
O=C(Nc1c2c(cc3c1CCC3)CCC2)NS(=O)(=O)C1CCN(C(=O)C2CCC2)CC1 [Example 25, 1-(Cyclobutanecarbonyl)-N-((1,2,3,5,6,7-hexahydro-s-indacen-4-yl)carbamoyl)piperidine-4-sulfonamide, potassium salt] | 1 to 10
O=C(Nc1c2c(cc3c1CCC3)CCC2)NS(=O)(=O)C1CCCN(C(=O)NC2CCC2)C1 (stereo not drawn) [Example 27, N-Cyclobutyl-3-(N-((1,2,3,5,6,7-hexahydro-s-indacen-4-yl)carbamoyl)sulfamoyl)piperidine-1-carboxamide, potassium salt] | 1 to 10
CS(=O)(=O)N1CCC(S(=O)(=O)NC(=O)Nc2c3c(cc4c2CCC4)CCC3)CC1 [Example 29, N-((1,2,3,5,6,7-Hexahydro-s-indacen-4-yl)carbamoyl)-1-(methylsulfonyl)piperidine-4-sulfonamide, potassium salt] | 1 to 10
CN1CCC(S(=O)(=O)NC(=O)Nc2c3c(cc4c2CCC4)CCC3)C1 (stereo not drawn) [Example 36, N-((1,2,3,5,6,7-Hexahydro-s-indacen-4-yl)carbamoyl)-1-methylpyrrolidine-3-sulfonamide, potassium salt] | 1 to 10
CN(C)C(=O)N1CCC(S(=O)(=O)NC(=O)Nc2c3c(cc4c2CCC4)CCC3)C1 (stereo not drawn) [Example 40, 3-(N-((1,2,3,5,6,7-Hexahydro-s-indacen-4-yl)carbamoyl)sulfamoyl)-N,N-dimethylpyrrolidine-1-carboxamide] | 1 to 10
O=C(Nc1c2c(cc3c1CCC3)CCC2)NS(=O)(=O)C1CN2CCC1CC2 (stereo not drawn) [Example 43, N-((1,2,3,5,6,7-Hexahydro-s-indacen-4-yl)carbamoyl) quinuclidine-3-sulfonamide, potassium-salt] | 1 to 10
CCN1CCC(N2CCC(S(=O)(=O)NC(=O)Nc3c4c(cc5c3CCC5)CCC4)C2)CC1 (stereo not drawn) [Example 44, 1-(1-Ethylpiperidin-4-yl)-N-((1,2,3,5,6,7-hexahydro-s-indacen-4-yl)carbamoyl)pyrrolidine-3-sulfonamide, potassium salt] | 1 to 10
CC(C)N1CCC(S(=O)(=O)NC(=O)Nc2c3c(cc4c2CCC4)CCC3)CC1 [Example 47, N-((1,2,3,5,6,7-Hexahydro-s-indacen-4-yl)carbamoyl)-1-iso-propylpiperidine-4-sulfonamide, potassium salt] | 1 to 10
CCN1CCC(N2CCC(S(=O)(=O)NC(=O)Nc3c4c(cc5c3CCC5)CCC4)CC2)CC1 [Example 48, 1′-Ethyl-N-((1,2,3,5,6,7-hexahydro-s-indacen-4-yl)carbamoyl)-[1,4′-bipiperidine]-4-sulfonamide, potassium salt] | 1 to 10
CCN1CC2(CC(S(=O)(=O)NC(=O)Nc3c4c(cc5c3CCC5)CCC4)C2)C1 [Example 50, 2-Ethyl-N-((1,2,3,5,6,7-hexahydro-s-indacen-4-yl)carbamoyl)-2-azaspiro[3.3]heptane-6-sulfonamide, potassium salt] | 1 to 10
CC(C)N1CC(N2CCC(S(=O)(=O)NC(=O)Nc3c4c(cc5c3CCC5)CCC4)C2)C1 (stereo not drawn) [Example 51, N-((1,2,3,5,6,7-Hexahydro-s-indacen-4-yl)carbamoyl)-1-(1-isopropylazetidin-3-yl)pyrrolidine-3-sulfonamide, potassium salt] | 1 to 10
O=C(Nc1c2c(cc3c1CCC3)CCC2)NS(=O)(=O)C1CCN(C(=O)C(F)(F)F)C1 (stereo not drawn) [Example 54, N-((1,2,3,5,6,7-Hexahydro-s-indacen-4-yl)carbamoyl)-1-(2,2,2-trifluoroacetyl)pyrrolidine-3-sulfonamide, potassium salt] | 1 to 10
O=C(Nc1c2c(cc3c1CCC3)CCC2)NS(=O)(=O)C1CCCN(CC2CC2)C1 (stereo not drawn) [Example 57, 1-(Cyclopropylmethyl)-N-((1,2,3,5,6,7-hexahydro-s-indacen-4-yl)carbamoyl)piperidine-3-sulfonamide, potassium salt] | 1 to 10
N#CCN1CCCC(S(=O)(=O)NC(=O)Nc2c3c(cc4c2CCC4)CCC3)C1 (stereo not drawn) [Example 58, 1-(Cyanomethyl)-N-((1,2,3,5,6,7-hexahydro-s-indacen-4-yl)carbamoyl)piperidine-3-sulfonamide, potassium salt] | 1 to 10
C#CCN1CCCC(S(=O)(=O)NC(=O)Nc2c3c(cc4c2CCC4)CCC3)C1 (stereo not drawn) [Example 59, N-((1,2,3,5,6,7-Hexahydro-s-indacen-4-yl)carbamoyl)-1-(prop-2-yn-1-yl)piperidine-3-sulfonamide, potassium salt] | 1 to 10
CN1CCCC(S(=O)(=O)NC(=O)Nc2c3c(cc4c2CCC4)CCC3)C1 (stereo not drawn) [Example 60, N-((1,2,3,5,6,7-Hexahydro-s-indacen-4-yl)carbamoyl)-1-methylpiperidine-3-sulfonamide, potassium salt] | 1 to 10
CN(C)C(=O)N1CCC(S(=O)(=O)NC(=O)Nc2c3c(cc4c2CCC4)CCC3)CC1 [Example 61, 4-(N-((1,2,3,5,6,7-Hexahydro-s-indacen-4-yl)carbamoyl)sulfamoyl)-N,N-dimethylpiperidine-1-carboxamide] | 1 to 10
CC(C)N1CC(N2CCC(S(=O)(=O)NC(=O)Nc3c4c(cc5c3CCC5)CCC4)CC2)C1 [Example 62, N-((1,2,3,5,6,7-Hexahydro-s-indacen-4-yl)carbamoyl)-1-(1-isopropylazetidin-3-yl)piperidine-4-sulfonamide, potassium salt] | 1 to 10
CC(C)N1CC2(CC(S(=O)(=O)NC(=O)Nc3c4c(cc5c3CCC5)CCC4)C2)C1 [Example 63, N-((1,2,3,5,6,7-Hexahydro-s-indacen-4-yl)carbamoyl)-2-isopropyl-2-azaspiro[3.3]heptane-6-sulfonamide, potassium salt] | 1 to 10
CN1CC2(CC(S(=O)(=O)NC(=O)Nc3c4c(cc5c3CCC5)CCC4)C2)C1 [Example 64, N-((1,2,3,5,6,7-Hexahydro-s-indacen-4-yl)carbamoyl)-2-methyl-2-azaspiro[3.3]heptane-6-sulfonamide, potassium salt] | 1 to 10
